# Marks after values point to notes of the source that are not given here.
# Key:
# Format in all cases: in vivo
# male mice (ICR) [1] = assay: Grip strength test (forelimbs, muscle relaxation); details: for ED50: Mus musculus, ip, intraperitoneal (10 ul/g, bw), at time of maximum effect, 50% vs vehicle only (100%), read-out: MR test ED50, III = Grip strength
# Method: (§1) For testing, male mice (ICR) were purchased from ORIENT BIO INC. (Korea), divided into several groups with 6 mice in each group, and were adapted for 4-5 days. The mice having the weight ranging from 19 g to 26 g were employed for the test. The pharmacological effect of the test compounds on muscle relaxation was evaluated by Rotarod test, grip strength test, and muscular force (wire hang) test. All mice were adapted to the test environment at one hour before starting the tests. The pharmacological effects of all the test compounds were evaluated by administration through peritoneal cavity of the mice (10 ul/g, bw).
# A grip strength test using the test animals' forelimbs was performed using an instrument equipped with triangle ring and designed so as to easily grip with the forelimbs of experimental animals, manufactured from Ugo Basile Inc. (Ugo Basile, Model 47106, Italy). The test was conducted before and after administration of the compounds to evaluate the effects thereof. […] The mouse was made to grip the rod with its forelimbs, and its tail was pulled, where the force at which the mouse detached from the rod was recorded. The instrument indicated the force in grams. All of the mice were given 3 opportunities for test, and the 3 highest values among the test opportunities were selected and the mean value was used as the test result. This experimentation was conducted according to the method described in the reference, ‘Nevins et al. (1993) Quantitative grip strength assessment as a means of evaluating muscle relaxation in mice. Psychopharmacol. 110: 92-96’.
# (§2) The obtained results are shown as mean±sem. The difference between the groups was statistically analyzed by ANOVA, and then, further examined by Dunnett's test or Bonferroni test. If p is less than 0.05, it was determined that the difference between the groups had statistical significance.
# (§3) The results of muscle relaxation activity of the phenyl carbamate compounds measured in above Experimental Examples 1 to 4 are shown in following Table 3.
# male mice (ICR) [2] = assay: Endurance time on a rotarod rotating at accelerated speed (Acc. Rotarod, muscle relaxation); details: Mus musculus, ip, 5 min, intraperitoneal (10 ul/g, bw), at time of maximum effect, 50% of muscle relaxation activity vs vehicle only (100%), rod accelerated 4 to 40 rpm, max 5 min, read-out: MR test ED50, I = Acc. Rotarod
# Method: as §1
# At 24 hours before testing, the mice to be tested were preliminarily trained for 5 minutes on a rod rotating at the rate of 6 revolutions per a minute. The pharmacological effect on muscle relaxation of the test compounds were evaluated by observing the mice on a rod for 5 minutes, where the rod was accelerated from 4 to 40 revolutions per a minute during the test time. The endurance time that each mouse endures on the acceleratedly rotated rod without falling off from the rod was recorded. As test time for evaluation, a maximum of 5 minutes was applied. […] This experimentation was conducted according to the method described in the reference, ‘Monville et al. (2006) Comparison of incremental and accelerating protocol of the rotarod test for the assessment of motor deficits in the 6-OHDA model. J. Neurosci. Meth. 158: 219-223’.
# as §2, §3
# male mice (ICR) [3] = assay: Wire hang test (muscular force, muscle relaxation); details: for ED50: Mus musculus, ip, intraperitoneal (10 ul/g, bw), at time of maximum effect, 50% vs vehicle only (100%), read-out: MR test ED50, IV = Wire hang; for IV = Wire hang, effect (%) compared to that of control treated with vehicle only: 100 mg/kg administered, intraperitoneal
# Method: as §1
# This experimentation was conducted using a metal wire of 30 cm in length, which was suspended between two pillars at a height of about 40 cm from the bottom covered with a soft pad. […] Each mouse was made to grip the wire using two forelimbs, and the elapse time before the mouse fell off from the wire to the pad on the bottom was recorded in seconds. Each mouse was given 5 opportunities for this test at an interval of 2 minutes period. The highest 3 records among the test opportunities were selected and the mean value was used as the test result. This experimentation was conducted according to the method described in the reference, ‘Jacqueline N. Crawley (1999) Behavioral phenotyping of transgenic and knockout mice: experimental design and evaluation of general health, sensory functions, motor abilities, and specific behavioral tests. Brain Res. 835: 18-26’.
# as §2, §3
# male mice (ICR) [4] = assay: Residence time on a rotarod rotating at a fixed speed (Fixed 15 r.p.m. Rotarod, muscle relaxation); details: intraperitoneal (10 ul/g, bw), at time of maximum effect, 50% vs vehicle only (100%), 15 rpm, max 10 min
# Method: as §1
# All the mice to be tested were preliminarily trained for 5 minutes on a rod rotating at the rate of 15 revolutions per a minute. The mice that could not remain on the rod without falling off therefrom for a minimum of 2 minutes were excluded from this testing. After the training, all the mice were allowed to rest for 45-60 minutes. Before the administration of the test compounds, the mice were subjected to a further training for one minute on the rod rotating under the same condition, where the mice falling off from the rod were excluded from this experimentation. […] In case a mouse stays on the rod until the test is finished, the time was recorded as 10 minutes. As test time for evaluation, a maximum of 10 minutes was applied. This experimentation was conducted according to the method described in the reference, ‘Yasuda et al. (2005) Antipyretic, analgesic and muscle relaxant activities of Pueraria isoflavonoids and their metabolites from Pueraria lobata Ohwi—a traditional Chinese drug. Biol. Pharm. Bull. 28: 1224-1228’.
# as §2, §3
Compound,"MR test ED50, II = Fixed 15 r.p.m. Rotarod (male mice (ICR) [4])",further results
"C[C@@H](OC(N)=O)[C@@H](O)c1ccccc1Cl [Compound 5, 1-(2-chlorophenyl)-(S)-1-hydroxypropyl-(R)-2-carbamate]","65.5 mg/kg, bw",ED50 (male mice (ICR) [1]): 95 mg/kg; ED50 (male mice (ICR) [2]): 66.9 mg/kg; ED50 (male mice (ICR) [3]): 52.5 mg/kg
"CC(OC(N)=O)C(O)c1ccccc1Cl (racemic) [Compound 3, 1-(2-chlorophenyl)-1-hydroxypropyl-2-carbamate]","47.7 mg/kg, bw",
"CCCNC(=O)O[C@@H](C)[C@@H](O)c1ccccc1Cl [Compound 16, 1-(2-chlorophenyl)-(S)-1-hydroxypropyl-(S)-2-N-propylcarbamate]","61.6 mg/kg, bw",
"CNC(=O)OC(C)C(O)c1ccccc1Cl (racemic) [Compound 29, 1-(2-chlorophenyl)-1-hydroxypropyl-2-N-methylcarbamate]","41.0 mg/kg, bw",
"CC(C)NC(=O)O[C@@H](C)[C@@H](O)c1ccccc1Cl [Compound 17, 1-(2-chlorophenyl)-(S)-1-hydroxypropyl-(S)-2-N-isopropylcarbamate]","66.4 mg/kg, bw",
"C[C@H](OC(N)=O)[C@H](O)c1ccccc1Cl [Compound 4, 1-(2-chlorophenyl)-(R)-1-hydroxypropyl-(S)-2-carbamate]","65.0 mg/kg, bw",ED50 (male mice (ICR) [1]): 124 mg/kg; ED50 (male mice (ICR) [2]): 69.3 mg/kg; ED50 (male mice (ICR) [3]): 40 mg/kg
"C[C@H](OC(N)=O)[C@@H](O)c1ccccc1I [Compound 65, 1-(2-iodophenyl)-(S)-1-hydroxypropyl-(S)-2-carbamate]","28.0 mg/kg, bw",
"CC[C@H](OC(N)=O)[C@@H](O)c1ccccc1I [Compound 67, 1-(2-iodophenyl)-(S)-1-hydroxybutyl-(S)-2-carbamate]","30.2 mg/kg, bw",
"CC(C)NC(=O)O[C@H](C)[C@H](O)c1ccccc1Cl [Compound 24, 1-(2-chlorophenyl)-(R)-1-hydroxypropyl-(R)-2-N-isopropylcarbamate]","44.3 mg/kg, bw",
"CNC(=O)O[C@H](C)[C@H](O)c1ccccc1Cl [Compound 22, 1-(2-chlorophenyl)-(R)-1-hydroxypropyl-(R)-2-N-methylcarbamate]","25.1 mg/kg, bw",
"C[C@@H](OC(N)=O)[C@H](O)c1ccccc1I [Compound 66, 1-(2-iodophenyl)-(R)-1-hydroxypropyl-(R)-2-carbamate]","67.9 mg/kg, bw",
"C[C@H](OC(N)=O)[C@@H](O)c1ccccc1Cl [Compound 1, 1-(2-chlorophenyl)-(S)-1-hydroxypropyl-(S)-2-carbamate]","23.3 mg/kg, bw",
"C[C@@H](OC(N)=O)[C@H](O)c1ccccc1Cl [Compound 2, 1-(2-chlorophenyl)-(R)-1-hydroxypropyl-(R)-2-carbamate]","76.5 mg/kg, bw",
"CNC(=O)O[C@@H](C)[C@@H](O)c1ccccc1Cl [Compound 15, 1-(2-chlorophenyl)-(S)-1-hydroxypropyl-(S)-2-N-methylcarbamate]","42.8 mg/kg, bw",
"C[C@H](OC(=O)NC1CC1)[C@@H](O)c1ccccc1Cl [Compound 18, 1-(2-chlorophenyl)-(S)-1-hydroxypropyl-(S)-2-N-cyclopropylcarbamate]","61.2 mg/kg, bw",
"C[C@@H](OC(=O)NC1CC1)[C@H](O)c1ccccc1Cl [Compound 25, 1-(2-chlorophenyl)-(R)-1-hydroxypropyl-(R)-2-N-cyclopropylcarbamate]","18.3 mg/kg, bw",ED50 (male mice (ICR) [1]): 46.1 mg/kg; ED50 (male mice (ICR) [2]): 30 mg/kg; ED50 (male mice (ICR) [3]): 32.9 mg/kg
"C[C@@H](OC(N)=O)[C@H](O)c1ccccc1F [Compound 64, 1-(2-fluorophenyl)-(R)-1-hydroxypropyl-(R)-2-carbamate]",,"III = Grip strength, effect (%) compared to that of control treated with vehicle only (male mice (ICR) [1]; 120 mg/kg administered, intraperitoneal): 120 ^a (35.4%); IV = Wire hang, effect (%) compared to that of control treated with vehicle only (male mice (ICR) [3]): 100 ^a (30.8%)"
"C[C@H](OC(N)=O)[C@@H](O)c1ccccc1F [Compound 63, 1-(2-fluorophenyl)-(S)-1-hydroxypropyl-(S)-2-carbamate]",,"IV = Wire hang, effect (%) compared to that of control treated with vehicle only (male mice (ICR) [3]): 100 ^a (84.2%)"

# From patent publication US9018253B2, “Phenylcarbamate compound and muscle relaxant containing the same” (Bio-Pharm Solutions Co., Ltd., priority 2010, dated 2015)
